Laboratory results as given in US8658131B2, “Compounds comprising 4-benzoylpiperidine as a sigma-1-selective ligand” (Washington University, priority 2010, dated 2014).
“And” between values parts separate entries of the source, which are not always exact repeats. Equal values may be shown once. Where a name gives a salt, the structure may show the parent alone. Read-outs that look alike come from different tables or passages of the source.

Columns and labels:
[1] = molecular target: T1, σ1 receptor (Cavia porcellus, UniProt Q60492); test: σ1 receptor binding assay, (+)-[3H]pentazocine, guinea pig brain membranes
T1 construct: using guinea pig brain membrane homogenates; from tissue; host or cells: guinea pig brain membrane homogenates
T1 sequence (Q60492 whole entry): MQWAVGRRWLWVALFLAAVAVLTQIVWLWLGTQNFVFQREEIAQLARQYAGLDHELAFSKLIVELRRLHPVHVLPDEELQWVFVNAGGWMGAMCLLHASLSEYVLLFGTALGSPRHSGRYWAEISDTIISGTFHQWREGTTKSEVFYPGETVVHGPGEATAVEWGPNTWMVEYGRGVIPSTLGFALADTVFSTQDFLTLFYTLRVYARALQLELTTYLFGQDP
Experimental: (§1) The compounds were dissolved in DMF, DMSO, or ethanol, and then diluted in 50 mM Tris-HCl buffer containing 150 mM NaCl and 100 mM EDTA at pH 7.4, prior to performing the σ1 and σ2 receptor binding assays.
The total incubation time was 90 min at room temperature. Nonspecific binding was determined from samples that contained 10 μM of cold haloperidol. After 90 min, the reaction was quenched by adding 150 μL of ice-cold wash buffer (10 mM Tris-HCl, 150 mM NaCl, pH 7.4) using a 96 channel transfer pipet (Fisher Scientific, Pittsburgh, Pa.). The samples were harvested and filtered rapidly through a 96-well fiberglass filter plate (Millipore, Billerica, Mass.) that had been presoaked with 100 μL of 50 mM Tris-HCl buffer at pH 8.0 for 1 h.
(§2) Ki values were calculated using the method of Cheng and Prusoff and are presented as the mean (±1 SEM).

[2] = molecular target: T2, human vesicular acetylcholine transporter (VAChT) (Homo sapiens, UniProt Q16572); test: VAChT binding assay, (−)-[3H]vesamicol, human VAChT expressed in PC12 cells
T2 construct: expressed in transfected cells; host or cells: PC12 A123.7 cells (crude extract / homogenized, partially clarified cells)
T2 sequence (Q16572 1-532): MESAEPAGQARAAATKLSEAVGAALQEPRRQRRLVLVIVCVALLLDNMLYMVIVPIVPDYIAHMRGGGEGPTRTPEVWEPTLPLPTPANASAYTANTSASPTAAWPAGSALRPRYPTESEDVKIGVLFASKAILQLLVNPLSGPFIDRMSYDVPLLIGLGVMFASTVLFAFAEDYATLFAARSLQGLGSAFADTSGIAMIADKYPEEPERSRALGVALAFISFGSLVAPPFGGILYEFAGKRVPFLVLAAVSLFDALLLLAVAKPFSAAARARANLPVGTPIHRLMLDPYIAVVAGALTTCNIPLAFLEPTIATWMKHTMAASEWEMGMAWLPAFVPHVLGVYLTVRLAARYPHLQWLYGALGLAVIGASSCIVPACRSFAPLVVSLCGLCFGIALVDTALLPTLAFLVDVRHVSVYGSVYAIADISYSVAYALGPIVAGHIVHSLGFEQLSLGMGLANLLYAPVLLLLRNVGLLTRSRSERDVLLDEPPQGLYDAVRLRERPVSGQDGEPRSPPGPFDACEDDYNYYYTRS
Experimental: In vitro binding assays of these novel compounds to VAChT were conducted with human vesicular acetylcholine transporter (VAChT) permanently expressed in PC12^A123.7 cells at about 50 pmol/mg of crude extract. […] Duplicate data were averaged and fitted by regression with a rectangular hyperbola to estimate the Ki value of the novel compound. All compounds were independently assayed at least two times.

[3] = molecular target: T3, σ2 receptor (Rattus norvegicus, UniProt Q5U3Y7); test: σ2 receptor binding assay, [3H]DTG, rat liver membrane homogenates; design: conducted using rat liver membrane homogenates; from tissue; host or cells: rat liver membrane homogenates
T3 sequence (Q5U3Y7 1-176): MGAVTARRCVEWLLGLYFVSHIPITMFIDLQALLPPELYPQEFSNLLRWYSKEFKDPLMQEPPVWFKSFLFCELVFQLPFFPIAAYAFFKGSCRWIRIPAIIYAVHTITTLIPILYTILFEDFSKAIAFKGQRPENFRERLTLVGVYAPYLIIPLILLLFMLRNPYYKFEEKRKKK
Experimental: as §1
The incubation time was 2 h at room temperature. Nonspecific binding was determined from samples that contained 10 μM of cold haloperidol. All other procedures were identical to those described for the σ1 receptor binding assay above.
as §2

[4] = molecular target: T4, VAChT (Tetronarce californica, UniProt P81721); test: biochemical; assay type: binding; conditions: for VAChT/σ selectivity: in words; for σ1/VAChT: selectivity index Ki (σ1)/Ki (VAChT); for σ2/VAChT: selectivity index Ki (σ2)/Ki (VAChT)
T4 construct: using highly purified Torpedo synaptic vesicles; from tissue
T4 sequence (P81721 1-515): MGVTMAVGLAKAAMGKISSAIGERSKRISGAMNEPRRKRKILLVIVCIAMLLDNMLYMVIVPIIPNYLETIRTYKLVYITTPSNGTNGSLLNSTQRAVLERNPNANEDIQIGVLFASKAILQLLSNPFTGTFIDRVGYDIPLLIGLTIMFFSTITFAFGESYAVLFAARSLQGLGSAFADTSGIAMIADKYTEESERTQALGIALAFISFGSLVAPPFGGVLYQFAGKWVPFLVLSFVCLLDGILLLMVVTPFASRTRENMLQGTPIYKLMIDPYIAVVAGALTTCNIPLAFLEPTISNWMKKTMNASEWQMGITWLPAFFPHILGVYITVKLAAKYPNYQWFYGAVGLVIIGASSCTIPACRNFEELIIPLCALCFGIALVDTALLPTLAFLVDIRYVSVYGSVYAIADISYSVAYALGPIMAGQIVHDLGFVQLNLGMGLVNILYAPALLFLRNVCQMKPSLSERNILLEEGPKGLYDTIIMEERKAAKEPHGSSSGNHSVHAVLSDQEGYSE

[5] = molecular target: T3, σ2 receptor; test: σ2 binding of Table 5 compounds; design: species or system guinea pig; conditions: read-out: σ2 Ki (nM) ± SEM; Table 6
Experimental: Compounds were tested for VAChT binding using highly purified Torpedo synaptic vesicles. The σ1 and σ2 binding affinities were tested in rat brain and in guinea pig membranes, respectively. Structures and Equilibrium binding constants (Ki) are reported in Table 5 and Table 6, respectively. As in previous studies, we define ligand selectivity in terms of a selectivity index which is calculated as Ki (σ1 or σ2)/Ki (VAChT).
Consequently, we also screened the target compounds for sigma binding to identify selective VAChT ligands from this new structural class of agents.

[6] = Table 4, Ki values of VAChT specific compounds, tissue not given, read-out: Sigma-1 σ1
[7] = Table 4, Ki values of VAChT specific compounds, source not given, read-out: VAChT
[8] = Table 4, Ki values of VAChT specific compounds, tissue not given, read-out: Sigma-2 σ1
[9] = expressed human VAChT, mean ± SEM, read-out: VAChT (Ki)
[10] = homogenates of rat liver, mean ± SEM, read-out: σ2 (Ki)

Compound: O=C(c1ccc(F)cc1)C1CCN(C2CCN(Cc3ccc(F)cc3)CC2O)CC1 (racemic) [Compound 14a, (1′-(4-Fluorobenzyl)-3′-hydroxy-[1,4′-bipiperidin]-4-yl)(4-fluorophenyl)methanone]
- Ki ([1]; membrane preparations of guinea pig brain, mean ± SEM, at least three experiments, read-out: σ1 (Ki)): < 0.005 µM and 0.00048 µM

Compound: Nc1cccc2c1CC(N1CCC(C(=O)c3ccc(F)cc3)CC1)C(O)C2 (single isomer, unassigned) [WW-1-88-1]
- Ki [1, 6]: 3.69 ± 0.537 µM
- Ki [2, 7]: 0.366 ± 0.036 µM
- Ki [3, 8]: 14.7 ± 1.94 µM

Compound: Nc1cccc2c1CC(N1CCC(C(=O)c3ccc(F)cc3)CC1)C(O)C2 (single isomer, unassigned) [WW-1-88-2]
- Ki [1, 6]: 3.55 ± 0.438 µM
- Ki [2, 7]: 0.0209 ± 0.00498 µM
- Ki [3, 8]: 6.89 ± 0.546 µM

Compound: O=C(c1ccc(F)cc1)C1CCN(C2CCN(C(=O)c3ccc(F)cc3)CC2O)CC1 (centres unmarked) [Compound 15a, (3′-Hydroxy-[1,4′-bipiperidine]-1′,4-diyl)bis(4-fluorophenyl)methanone]
- Ki [2, 9]: 3.6 ± 0.499 µM

Compound: COc1ccc(C(=O)C2CCN(C3CN(Cc4ccccc4)CCC3O)CC2)cc1 (centres unmarked) [Compound 16g, (1′-Benzyl-4′-hydroxy-[1,3′-bipiperidin]-4-yl)(4-methoxyphenyl)methanone]
- Ki [2, 9]: 0.0355 ± 0.0111 µM
- Ki [3, 10]: 8.54 ± 1.9 µM

Compound: COc1ccc(C(=O)C2CCN(C3Cc4ccccc4CC3O)CC2)cc1 (centres unmarked) [DZT-I-107]
- Ki [1, 6]: 0.132 ± 0.0101 µM
- Ki [2, 7]: 0.00464 ± 0.00047 µM
- Ki [3, 8]: 1.953 ± 0.0131 µM

Compound: Cc1ccc(C(=O)C2CCN(C3Cc4c(N)cccc4CC3O)CC2)cn1 (centres unmarked) [OS-5-70, (1-(8-amino-3-hydroxy-1,2,3,4-tetrahydronaphthalen-2-yl)piperidin-4-yl)(6-methylpyridin-3-yl)methanone oxalate]
- Ki [2, 7]: 0.048 ± 0.0114 µM
- Ki [4]: 0.048 ± 0.0114 µM
- Ki [3, 8]: 27.5 ± 6.94 µM
- Ki [5]: 27500 ± 6940 nM

Compound: COc1cccnc1C(=O)C1CCN(C2Cc3ccccc3CC2O)CC1 (centres unmarked) [TZ-4-1-92, (1-(3-Hydroxy-1,2,3,4-tetrahydronaphthalen-2-yl)piperidin-4-yl)(3-methoxypyridin-2-yl)methanone oxalate]
- Ki [4]: 0.121 ± 0.0292 µM
- VAChT/σ selectivity [4]: poor selectivity
- σ1/VAChT [4]: 173.3
- σ2/VAChT [4]: 12.9
- Ki [5]: 1560 ± 63 nM

Compound: O=C(c1cncc(F)c1)C1CCN(C2Cc3ccccc3CC2O)CC1 (centres unmarked) [TZ-4-1-96, (5-Fluoropyridin-3-yl)(1-(3-hydroxy-1,2,3,4-tetrahydronaphthalen-2-yl)piperidin-4-yl)methanone oxalate]
- Ki [4]: 0.0101 ± 0.00154 µM
- VAChT/σ selectivity [4]: moderate or high
- σ1/VAChT [4]: 70.2
- σ2/VAChT [4]: 167.3
- Ki [5]: 1690 ± 56 nM

Compound: Cn1ccc(C(=O)C2CCN(C3Cc4ccccc4CC3O)CC2)c1 (centres unmarked) [TZ-4-1-114, (1-(3-Hydroxy-1,2,3,4-tetrahydronaphthalen-2-yl)piperidin-4-yl)(1-methyl-1H-pyrrol-3-yl)methanone oxalate]
- Ki [5]: 7710 ± 1060 nM

Compound: O=C(c1cccnc1F)C1CCN(C2Cc3ccccc3CC2O)CC1 (centres unmarked) [TZ-4-1-122, (2-fluoropyridin-3-yl)(1-(3-hydroxy-1,2,3,4-tetrahydronaphthalen-2-yl)piperidin-4-yl)methanone]
- Ki [4]: 0.0127 ± 0.00241 µM
- VAChT/σ selectivity [4]: moderate or high
- σ1/VAChT [4]: 102.2
- σ2/VAChT [4]: 277.9
- Ki [5]: 3530 ± 331 nM

Compound: Cn1c(C(=O)C2CCN(C3Cc4ccccc4CC3O)CC2)cccc1=O (centres unmarked) [TZ-4-1-148, 6-(1-(3-Hydroxy-1,2,3,4-tetrahydronaphthalen-2-yl)piperidine-4-carbonyl)-1-methylpyridin-2(1H)-one]
- Ki [4]: 0.182 ± 0.0648 µM
- VAChT/σ selectivity [4]: poor selectivity
- σ1/VAChT [4]: 11.8
- σ2/VAChT [4]: 18.3
- Ki [5]: 3340 ± 127 nM

Compound: Cn1ccc(C(=O)C2CCN(C3Cc4ccccc4CC3O)CC2)cc1=O (centres unmarked) [TZ-4-1-150, 4-(1-(3-Hydroxy-1,2,3,4-tetrahydronaphthalen-2-yl)piperidine-4-carbonyl)-1-methylpyridin-2(1H)-one oxalate]
- Ki [4]: 0.0662 ± 0.0102 µM
- VAChT/σ selectivity [4]: moderate or high
- σ1/VAChT [4]: 50.5
- σ2/VAChT [4]: 32.1
- Ki [5]: 2120 ± 251 nM

Compound: O=C(c1ccc(F)nc1)C1CCN(C2Cc3ccccc3CC2O)CC1 (centres unmarked) [TZ-4-1-154, (6-fluoropyridin-3-yl)(1-(3-hydroxy-1,2,3,4-tetrahydronaphthalen-2-yl)piperidin-4-yl)methanone oxalate]
- Ki [4]: 0.0261 ± 0.00241 µM
- VAChT/σ selectivity [4]: moderate or high
- σ1/VAChT [4]: 26.2
- σ2/VAChT [4]: 67.0
- Ki [5]: 1750 ± 93 nM

Compound: O=C(c1ncccc1OCCF)C1CCN(C2Cc3ccccc3CC2O)CC1 (centres unmarked) [TZ-4-2-12, (3-(2-fluoroethoxy)pyridin-2-yl)(1-(3-hydroxy-1,2,3,4-tetrahydronaphthalen-2-yl)piperidin-4-yl)methanone oxalate]
- Ki [4]: 0.0764 ± 0.00833 µM
- VAChT/σ selectivity [4]: poor selectivity
- σ1/VAChT [4]: 262.0
- σ2/VAChT [4]: 4.0
- Ki [5]: 303 ± 130 nM

Compound: COc1ccc(C(=O)N2CCC(O)C(N3CCC(C(=O)c4ccc(F)cc4)CC3)C2)cc1 (centres unmarked) [WW-1-35]
- Ki [3, 8]: > 10 µM

Compound: O=C(c1ccc(F)cc1)C1CCN(C2CN(C(=O)c3ccccc3)CCC2O)CC1 (centres unmarked) [WW-1-39]
- Ki [3, 8]: 3.95 ± 0.278 µM

Compound: COc1ccc(C(=O)C2CCN(C3CN(C(=O)c4ccccc4)CCC3O)CC2)cc1 (centres unmarked) [WW-1-67]
- Ki [3, 8]: 4.85 ± 0.649 µM

Compound: COc1ccc(C(=O)C2CCN(C3CN(C(=O)c4ccc(F)cc4)CCC3O)CC2)cc1 (centres unmarked) [WW-1-107]
- Ki [3, 8]: 2.6 ± 0.363 µM

Compound: COc1ccc(C(=O)C2CCN(C3CN(Cc4ccccc4)CCC3O)CC2)cc1 (centres unmarked) [WW-1-109]
- Ki [1, 6]: 0.208 ± 0.053 µM
- Ki [2, 7]: 0.0355 ± 0.0111 µM
- Ki [3, 8]: 8.54 ± 1.9 µM

Compound: O=C(c1ccc(F)cc1)C1CCN(C2CN(C(=O)c3ccc(F)cc3)CCC2O)CC1 (centres unmarked) [WW-1-123]
- Ki [2, 7]: 8.7 ± 1.62 µM
- Ki [3, 8]: 1.38 ± 0.135 µM

Compound: COc1ccc(C(=O)C2CCN(C3CN(C(=O)c4cccnc4)CCC3O)CC2)cc1 (centres unmarked) [WW-III-13]
- Ki [3, 8]: 24.3 ± 1.91 µM

Compound: COc1ccc(C(=O)C2CCN(C3CN(C(=O)c4ccc(C)s4)CCC3O)CC2)cc1 (centres unmarked) [WW-III-17]
- Ki [3, 8]: 24.4 ± 3.63 µM

Compound: COc1ccc(C(=O)C2CCN(C3CN(C(=O)c4cccs4)CCC3O)CC2)cc1 (centres unmarked) [WW-III-21]
- Ki [3, 8]: 6.38 ± 1 µM

Compound: COc1ccc(C(=O)C2CCN(C3CN(Cc4cccnc4)CCC3O)CC2)cc1 (centres unmarked) [WW-III-25]
- Ki [1, 6]: 2.23 ± 0.168 µM
- Ki [2, 7]: 0.107 ± 0.0111 µM
- Ki [3, 8]: 17.1 ± 3.86 µM

Compound: Cc1ccsc1C(=O)N1CCC(O)C(N2CCC(C(=O)c3ccc(F)cc3)CC2)C1 (centres unmarked) [WW-III-39]
- Ki [3, 8]: 4.22 ± 0.205 µM

Compound: Cc1ccc(C(=O)N2CCC(O)C(N3CCC(C(=O)c4ccc(F)cc4)CC3)C2)s1 (centres unmarked) [WW-III-41]
- Ki [3, 8]: 16.4 ± 1.48 µM

Compound: O=C(c1ccc(F)cc1)C1CCN(C2CN(C(=O)c3cccs3)CCC2O)CC1 (centres unmarked) [WW-III-43]
- Ki [3, 8]: 4.05 ± 0.244 µM

Compound: O=C(c1ccc(F)cc1)C1CCN(C2CN(C(=O)c3cccnc3)CCC2O)CC1 (centres unmarked) [WW-III-45]
- Ki [2, 7]: 0.807 ± 0.139 µM
- Ki [3, 8]: 15.5 ± 2.17 µM

Compound: O=C(c1ccc(F)cc1)C1CCN(C2CN(Cc3cccnc3)CCC2O)CC1 (centres unmarked) [WW-III-47]
- Ki [1, 6]: 1.16 ± 0.128 µM
- Ki [2, 7]: 0.237 ± 0.0414 µM
- Ki [3, 8]: 13 ± 2.63 µM

Compound: (4′-Hydroxy-1′-(pyridin-4-ylmethyl)-[1,3′-bipiperidin]-4-yl)(4-methoxyphenyl)methanone [Compound 16h]
- Ki [3, 10]: 17.1 ± 3.86 µM
